Experimental data reported in patent US8415386B2, “Azolopyrrolone melanin concentrating hormone receptor-1 antagonists” (Bristol-Myers Squibb Company, priority 2008, dated 2013).
Structures can show the parent of a compound that is named as a salt.

Biological target: T1, mutated (E4Q, A5T) hMCHR1 receptor (Homo sapiens, UniProt Q99705, A5T/E4Q)
T1 construct: expressed in transfected cells; host or cells: HEK-293 (stably transfected), membranes
Assay: Radioligand Binding Assay for Assessment of MCHR1 Activity
Details: membranes from stably transfected HEK-293 cells; competition with [Phe13,[125I]Tyr19]-MCH
Experimental: Radioligand Binding Assay for Assessment of MCHR1 Activity
Membranes from stably transfected HEK-293 cells expressing a mutated (E4Q, A5T) hMCHR1 receptor were prepared by dounce homogenization and differential centrifugation. Binding experiments were carried out with 0.5-1.0 ug of membrane protein incubated in a total of 0.2 ml in 25 mM HEPES (pH 7.4) with 10 mM MgCl2, 2 mM EGTA, and 0.1% BSA (Binding Buffer) for 90 min. For competition binding assays, reactions were carried out in the presence of with 0.06-0.1 nM [Phe^13, [^125I]Tyr^19]-MCH and increasing concentrations of unlabeled test molecules. Reactions were terminated by rapid vacuum filtration over 96 well-GFC UNIFILTER® plates pre-coated with 0.075 ml binding buffer containing 1% BSA, and washed 3 times with 0.4 ml of Phospho-buffered Saline (pH 7.4) containing 0.01% TX-100. Filters were dried, 0.05 ml microscint 20 was added to each well and radioactivity was subsequently quantified by scintillation counting on a TOPCOUNT® microplate scintillation counter (Packard). Inhibitory constants were determined by nonlinear least squares analysis using a four parameter logistic equation.

T1 sequence (Q99705 whole entry E4Q/A5T): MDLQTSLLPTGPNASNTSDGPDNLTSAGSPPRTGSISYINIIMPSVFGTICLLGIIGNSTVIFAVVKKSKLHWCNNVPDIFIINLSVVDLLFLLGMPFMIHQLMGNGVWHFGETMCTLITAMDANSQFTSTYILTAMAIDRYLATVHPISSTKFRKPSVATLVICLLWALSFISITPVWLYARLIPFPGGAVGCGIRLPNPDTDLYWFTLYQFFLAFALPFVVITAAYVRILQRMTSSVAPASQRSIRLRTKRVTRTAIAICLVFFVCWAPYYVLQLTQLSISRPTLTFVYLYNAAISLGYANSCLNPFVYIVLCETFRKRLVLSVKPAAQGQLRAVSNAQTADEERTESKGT

Ki [nM] | SMILES
13.2 | COc1cc(N2Cc3cn(-c4ccc(Cl)cc4)nc3C2=O)ccc1OCC(C)O (centres unmarked) [Example 6, 2-(4-Chlorophenyl)-5-(4-(2-hydroxypropoxy)-3-methoxyphenyl)-4,5-dihydropyrrolo[3,4-c]pyrazol-6(2H)-one]
81 | O=C1c2nn(-c3ccc(Cl)cc3)cc2CN1c1ccc(N2CC[C@@H](O)C2)nc1 [Example 11, (R)-2-(4-Chlorophenyl)-5-(6-(3-hydroxypyrrolidin-1-yl)pyridin-3-yl)-4,5-dihydropyrrolo[3,4-c]pyrazol-6(2H)-one]
0.7 | CN(C)[C@@H]1CCN(c2ccc(N3Cc4cn(-c5ccc(Cl)cc5)nc4C3=O)cn2)C1 [Example 18, HCl]
41.1 | COc1cc(N2Cc3nn(-c4ccc(Cl)cc4)cc3C2=O)ccc1OCC(C)OS(C)(=O)=O (centres unmarked) [Example 4, 1-(4-(2-(4-Chlorophenyl)-4-oxopyrrolo[3,4-c]pyrazol-5(2H,4H,6H)-yl)-2-methoxyphenoxy)propan-2-yl methanesulfonate]
106 | COc1cc(N2Cc3nn(-c4ccc(Cl)cc4)cc3C2=O)ccc1OCC(C)(C)O [Example 3, 2-(4-Chlorophenyl)-5-(4-(2-hydroxy-2-methylpropoxy)-3-methoxyphenyl)-5,6-dihydropyrrolo[3,4-c]pyrazol-4(2H)-one]
3.6 | CN(C(=O)OC(C)(C)C)C1CCN(c2ccc(N3Cc4cn(-c5ccc(Cl)cc5)nc4C3=O)cn2)C1 (centres unmarked) [Example 16G, tert-Butyl 1-(5-(2-(4-chlorophenyl)-6-oxopyrrolo[3,4-e]pyrazol-5(2H,4H,6H)-yl)pyridin-2-yl)pyrrolidin-3-yl(methyl)carbamate]
17.1 | O=C1c2nn(-c3ccc(Cl)cc3)cc2CN1c1ccc(N2CCC(N3CCCC3)CC2)nc1 [Example 29, 2-(4-Chlorophenyl)-5-(6-(4-(pyrrolidin-1-yl)piperidin-1-yl)pyridin-3-yl)-4,5-dihydropyrrolo[3,4-c]pyrazol-6(2H)-one]
34.3 | COc1cc(N2Cc3nn(-c4ccc(Cl)cc4)nc3C2=O)ccc1OCC(C)(C)O [Example 13, 2-(4-Chlorophenyl)-5-(4-(2-hydroxy-2-methylpropoxy)-3-methoxyphenyl)-5,6-dihydropyrrolo[3,4-d][1,2,3]triazol-4(2H)-one]
113 | COc1cc(N2Cc3nn(-c4ccc(Cl)cc4)nc3C2=O)ccc1OCC(O)C1CC1 (centres unmarked) [Example 14, 2-(4-Chlorophenyl)-5-(4-(2-cyclopropyl-2-hydroxyethoxy)-3-methoxyphenyl)-5,6-dihydropyrrolo[3,4-d][1,2,3]triazol-4(2H)-one]
0.5 | CN[C@H]1CCN(c2ccc(N3Cc4cn(-c5ccc(Cl)cc5)nc4C3=O)cc2OC)C1 [Example 42, (S)-2-(4-Chlorophenyl)-5-(3-methoxy-4-(3-(methylamino)pyrrolidin-1-yl)phenyl)-4,5-dihydropyrrolo[3,4-c]pyrazol-6(2H)-one, 2 TFA]

Second part, the molecule before the results:

SMILES | Ki [nM]
COc1cc(N2Cc3cn(-c4ccc(Cl)cc4)nc3C2=O)ccc1OCCN1CCCC1 [Example 15, 2-(4-Chlorophenyl)-5-(3-methoxy-4-(2-(pyrrolidin-1-yl)ethoxy)phenyl)-4,5-dihydropyrrolo[3,4-c]pyrazol-6(2H)-one, TFA] | 0.7
O=C1c2nn(-c3ccc(Cl)cc3)cc2CN1c1ccc(N2CCC(N3CCCC3)C2)nc1 (centres unmarked) [Example 28, 5-(6-(1,3′-Bipyrrolidin-1′-yl)pyridin-3-yl)-2-(4-chlorophenyl)-4,5-dihydropyrrolo[3,4-c]pyrazol-6(2H)-one] | 0.9
COc1cc(N2Cc3nn(-c4ccc(Cl)cc4)nc3C2=O)ccc1OCC(=O)C1CC1 [Example 14B, 2-(4-Chlorophenyl)-5-(4-(2-cyclopropyl-2-oxoethoxy)-3-methoxyphenyl)-5,6-dihydropyrrolo[3,4-d][1,2,3]triazol-4(2H)-one] | 304
CN(C)[C@H]1CCN(c2ccc(N3Cc4cn(-c5ccc(Cl)cc5)nc4C3=O)cn2)C1 [Example 17, (S)-2-(4-Chlorophenyl)-5-(6-(3-(dimethylamino)pyrrolidin-1-yl)pyridin-3-yl)-4,5-dihydropyrrolo[3,4-c]pyrazol-6(2H)-one, 2 HCl] | 0.9
COc1cc(N2Cc3nn(-c4ccc(Cl)cc4)cc3C2=O)ccc1OCC(C)O (centres unmarked) [Example 2, 2-(4-Chlorophenyl)-5-(4-(2-hydroxypropoxy)-3-methoxyphenyl)-5,6-dihydropyrrolo[3,4-c]pyrazol-4(2H)-one] | 334
CC(C)(C)NC1CCN(c2ccc(N3Cc4cn(-c5ccc(Cl)cc5)nc4C3=O)cn2)C1 (centres unmarked) [Example 24, 5-(6-(3-(tert-Butylamino)pyrrolidin-1-yl)pyridin-3-yl)-2-(4-chlorophenyl)-4,5-dihydropyrrolo[3,4-c]pyrazol-6(2H)-one] | 2.7
CN[C@H]1CCN(c2ncc(N3Cc4cn(-c5ccc(Cl)cc5)nc4C3=O)cn2)C1 [Example 47, (S)-2-(4-Chlorophenyl)-5-(2-(3-(methylamino)pyrrolidin-1-yl)pyrimidin-5-yl)-4,5-dihydropyrrolo[3,4-c]pyrazol-6(2H)-one] | 32.7
CNC1CCN(c2ccc(N3Cc4cn(-c5ccc(Cl)cc5)nc4C3=O)cn2)C1 (centres unmarked) [Example 16, 2-(4-Chlorophenyl)-5-(6-(3-(methylamino)pyrrolidin-1-yl)pyridin-3-yl)-4,5-dihydropyrrolo[3,4-c]pyrazol-6(2H)-one, 2 TFA] | 2.5
COc1cc(N2Cc3cn(-c4ccc(Cl)cc4)nc3C2=O)ccc1OCC(C)(C)O [Example 8, 2-(4-Chlorophenyl)-5-(4-(2-hydroxy-2-methylpropoxy)-3-methoxyphenyl)-4,5-dihydropyrrolo[3,4-c]pyrazol-6(2H)-one] | 12.5
COc1cc(N2Cc3cn(-c4ccc(Cl)cc4)nc3C2=O)ccc1OC[C@H](O)C1CC1 [Example 9, (R)-2-(4-Chlorophenyl)-5-(4-(2-cyclopropyl-2-hydroxyethoxy)-3-methoxyphenyl)-4,5-dihydropyrrolo[3,4-c]pyrazol-6(2H)-one] | 8.6
COc1cc(N2Cc3cn(-c4ccc(Cl)cc4)nc3C2=O)ccc1OC[C@H](OC(=O)[C@@H](N)C(C)C)C1CC1 [Example 10, (S)-((R)-2-(4-(2-(4-Chlorophenyl)-6-oxopyrrolo[3,4-c]pyrazol-5(2H,4H,6H)-yl)-2-methoxyphenoxy)-1-cyclopropylethyl) 2-amino-3-methylbutanoate, TFA salt] | 2.7
COc1cc(N2Cc3nn(-c4ccc(Cl)cc4)nc3C2=O)ccc1OCCN1CCCC1 [Example 12, 2-(4-Chlorophenyl)-5-(3-methoxy-4-(2-(pyrrolidin-1-yl)ethoxy)phenyl)-5,6-dihydropyrrolo[3,4-d][1,2,3]triazol-4(2H)-one] | 2.3
CN(C(=O)OC(C)(C)C)[C@H]1CCN(c2ccc(N3Cc4cn(-c5ccc(Cl)cc5)nc4C3=O)cn2)C1 [Example 20A, (S)-tert-Butyl 1-(5-(2-(4-chlorophenyl)-6-oxopyrrolo[3,4-c]pyrazol-5(2H,4H,6H)-yl)pyridin-2-yl)pyrrolidin-3-yl(methyl)carbamate] | 784
COc1cc(N2Cc3cn(-c4ccc(Cl)cc4)nc3C2=O)ccc1OCC(C)OS(C)(=O)=O (centres unmarked) [Example 5, 1-(4-(2-(4-Chlorophenyl)-6-oxopyrrolo[3,4-c]pyrazol-5(2H,4H,6H)-yl)-2-methoxyphenoxy)propan-2-yl methanesulfonate] | 13.7
CN[C@H]1CCN(c2ccc(N3Cc4cn(-c5ccc(Cl)cc5)nc4C3=O)cn2)C1 [Example 20, (S)-2-(4-Chlorophenyl)-5-(6-(3-(methylamino)pyrrolidin-1-yl)pyridin-3-yl)-4,5-dihydropyrrolo[3,4-c]pyrazol-6(2H)-one, 2 HCl] | 0.9
CN(C(=O)OC(C)(C)C)[C@@H]1CCN(c2ccc(N3Cc4cn(-c5ccc(Cl)cc5)nc4C3=O)cn2)C1 [Example 19A, (R)-tort-Butyl 1-(5-(2-(4-chlorophenyl)-6-oxopyrrolo[3,4-c]pyrazol-5(2H,4H,6H)-yl)pyridin-2-yl)pyrrolidin-3-yl(methyl)carbamate] | 184
COc1ccc(N2Cc3cn(-c4ccc(Cl)cc4)nc3C2=O)cc1OC [Example 7, 2-(4-Chlorophenyl)-5-(3,4-dimethoxyphenyl)-4,5-dihydropyrrolo[3,4-c]pyrazol-6(2H)-one] | 49.4
CN[C@@H]1CCN(c2ccc(N3Cc4cn(-c5ccc(Cl)cc5)nc4C3=O)cn2)C1 [Example 19, (R)-2-(4-Chlorophenyl)-5-(6-(3-(methylamino)pyrrolidin-1-yl)pyridin-3-yl)-4,5-dihydropyrrolo[3,4-c]pyrazol-6(2H)-one, 2 HCl] | 1.3
COc1cc(N2Cc3nn(-c4ccc(Cl)cc4)cc3C2=O)ccc1OC[C@H](O)C1CC1 [Example 1, (R)-2-(4-Chlorophenyl)-5-(4-(2-cyclopropyl-2-hydroxyethoxy)-3-methoxyphenyl)-5,6-dihydropyrrolo[3,4-c]pyrazol-4(2H)-one] | 41.4
